{
  "source": "patent US6162918A",
  "about": "“Xanthene and acridine derivatives” (priority 1996, dated 2000)",
  "key": {"[1]": {"target": "HSV-1 thymidine kinase (TK) (Human herpesvirus 1, UniProt P0DTH5)", "sequence (P0DTH5 whole entry)": "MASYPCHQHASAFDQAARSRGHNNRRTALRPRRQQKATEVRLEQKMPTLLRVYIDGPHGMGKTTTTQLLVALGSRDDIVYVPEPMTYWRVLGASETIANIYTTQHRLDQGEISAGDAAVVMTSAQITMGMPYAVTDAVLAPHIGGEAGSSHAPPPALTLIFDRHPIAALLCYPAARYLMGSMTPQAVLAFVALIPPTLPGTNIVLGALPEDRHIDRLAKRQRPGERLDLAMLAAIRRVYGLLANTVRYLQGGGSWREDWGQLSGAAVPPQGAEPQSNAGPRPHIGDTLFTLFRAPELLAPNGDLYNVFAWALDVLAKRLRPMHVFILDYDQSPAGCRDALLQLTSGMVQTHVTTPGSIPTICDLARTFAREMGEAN", "assay": "Inhibition of HSV-1 thymidine kinase (3H-thymidine phosphorylation, DEAE-cellulose disc assay)", "format": "biochemical", "experimental": "(§1) In this test procedure, the assay mixture contains […] Tris HCl, pH 8, 5 mmol magnesium chloride, 5 mmol ATP, […] 3H-thymidine (50 Ci/mmol), suitably diluted enzyme preparation and various concentrations of test compounds in a total volume of […]. Assays are incubated at 37° C. for 30 minutes and the reaction is terminated by immersion in a boiling water bath for 2 minutes. […] aliquots from each assay are then dried on to DEAE-cellulose paper discs and the unphosphorylated 3H-thymidine is removed by washing in 4 mmol ammonium formate. The radioactivity remaining bound to the discs is then measured by scintillation spectrophotometry. The degree of inhibition at each concentration of test compound is expressed as a percentage of the control reaction (100%) after subtracting a measured blank value which represents the amount of radioactivity bound to the disc from a reaction containing heat-inactivated enzymes. The IC50 value, namely the concentration of test compound which inhibits enzyme activity by 50%, is then calculated."}, "[2]": {"target": "HSV-2 thymidine kinase (TK) (Human herpesvirus 2, UniProt P04407)", "sequence (P04407 whole entry)": "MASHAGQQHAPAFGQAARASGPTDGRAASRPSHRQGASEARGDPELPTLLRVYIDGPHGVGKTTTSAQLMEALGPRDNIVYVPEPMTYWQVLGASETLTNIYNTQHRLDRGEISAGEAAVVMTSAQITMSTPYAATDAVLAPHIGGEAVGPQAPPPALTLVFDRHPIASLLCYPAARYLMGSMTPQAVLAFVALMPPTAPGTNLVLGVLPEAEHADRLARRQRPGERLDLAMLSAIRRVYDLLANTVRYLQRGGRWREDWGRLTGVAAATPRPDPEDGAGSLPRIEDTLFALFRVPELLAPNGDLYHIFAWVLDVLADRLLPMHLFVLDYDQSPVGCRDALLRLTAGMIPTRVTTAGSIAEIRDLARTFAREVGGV", "assay": "Inhibition of HSV-2 thymidine kinase (3H-thymidine phosphorylation, DEAE-cellulose disc assay)", "format": "biochemical", "experimental": "as §1"}, "[3]": {"settings": "37° C., 30 minutes, pH 8, 3H-thymidine substrate, read-out: Activity against HSV-1 TK IC50 (nmol)"}, "[4]": {"settings": "37° C., 30 minutes, pH 8, 3H-thymidine substrate, read-out: Activity against HSV-2 TK IC50 (nmol)"}},
  "note": "pIC50: −log10 of the molar value. Where two headings read alike, the source gives them in different places.",
  "data": [
    {"smiles": "CC1(C)CC(=O)C2=C(C1)NC1=C(C(=O)CC(C)(C)C1)C2c1ccc(Br)cc1", "note": "[H, 9(4-Bromophenyl)-3,4,6,7,9,10-hexahydro-3,3,6,6-tetramethyl-1,8(2H,5H)-acidinedione]", "values": [
      {"measurement": "pIC50", "setting": "[1]; [3]", "result": 7.92},
      {"measurement": "pIC50", "setting": "[2]; [4]", "result": 8.82}
    ]},
    {"smiles": "CC1(C)CC(=O)C2=C(C1)NC1=C(C(=O)CC(C)(C)C1)C2c1ccc([N+](=O)[O-])c(OCc2ccccc2)c1", "note": "[J, 9-(3-benzyloxy-4-nitrophenyl)-3,4,6,7,9,10-hexahydro-3,3,6,6-tetramethyl-1,8(2H,5H)-acridinedione]", "values": [
      {"measurement": "pIC50", "setting": "[1]; [3]", "result": 9.05},
      {"measurement": "pIC50", "setting": "[2]; [4]", "result": 9.42}
    ]},
    {"smiles": "CCc1cn([C@H]2C[C@H](O)[C@@H](CNC(=O)C3c4ccccc4Oc4ccccc43)O2)c(=O)[nH]c1=O", "note": "[2',5'-dideoxy-5-ethyl-5'-[(9-xanthenyl)carboxamido]uridine, reference compound]", "values": [
      {"measurement": "pIC50", "setting": "[1]", "result": 8.38},
      {"measurement": "pIC50", "setting": "[2]", "result": 9.47}
    ]},
    {"smiles": "CC1(C)CC(=O)C2=C(C1)NC1=C(C(=O)CC(C)(C)C1)C2c1ccc(Cl)c(-c2ccccc2)c1", "note": "[C, 9-[6-chloro-3-(1,1'-biphenylyl)]-3,4,6,7,9,10-hexahydro-3,3,6,6-tetramethyl-1,8(2H,5H)-acridinedione]", "values": [
      {"measurement": "pIC50", "setting": "[1]; [3]", "result": 9.28},
      {"measurement": "pIC50", "setting": "[2]; [4]", "result": 9.57}
    ]},
    {"smiles": "CC1(C)CC(=O)C2=C(C1)NC1=C(C(=O)CC(C)(C)C1)C2c1ccc(Cl)c(Oc2ccccc2)c1", "note": "[A, 9-(4-chloro-3-phenoxyphenyl)-3,4,6,7,9,10-hexahydro-3,3,6,6-tetramethyl-1,8(2H,5H)-acridinedione]", "values": [
      {"measurement": "pIC50", "setting": "[1]; [3]", "result": 9.52},
      {"measurement": "pIC50", "setting": "[2]; [4]", "result": 10.02}
    ]},
    {"smiles": "CC1(C)CC(=O)C2=C(C1)NC1=C(C(=O)CC(C)(C)C1)C2c1ccc(Cl)c(Oc2ccncc2)c1", "note": "[Compound I, 9-[4-chloro-3-(4-pyridyloxy)-phenyl]-3,4,6,7,9,10-hexahydro-3,3,6,6-tetramethyl-1,8(2H,5H)-acridinedione]", "values": [
      {"measurement": "pIC50", "setting": "[1]; [3]", "result": 9.10},
      {"measurement": "pIC50", "setting": "[2]; [4]", "result": 9.72}
    ]},
    {"smiles": "CC1(C)CC(=O)C2=C(C1)NC1=C(C(=O)CC(C)(C)C1)C2c1cccc(Oc2ccccc2)c1", "note": "[G, 3,4,6,7,9,10-hexahydro-3,3,6,6-tetramethyl-9-(3-phenoxyphenyl)-1,8(2H,5H)-acridinedione]", "values": [
      {"measurement": "pIC50", "setting": "[1]; [3]", "result": 8.24},
      {"measurement": "pIC50", "setting": "[2]; [4]", "result": 8.96}
    ]},
    {"smiles": "CC1(C)CC(=O)C2=C(C1)NC1=C(C(=O)CC(C)(C)C1)C2c1ccc(Cl)c(Sc2ccncc2)c1", "note": "[K]", "values": [
      {"measurement": "pIC50", "setting": "[1]; [3]", "result": 8.59},
      {"measurement": "pIC50", "setting": "[2]; [4]", "result": 9.27}
    ]},
    {"smiles": "CC1(C)CC(=O)C2=C(C1)NC1=C(C(=O)CC(C)(C)C1)C2c1ccc(Cl)c(F)c1", "note": "[E, 9-(4-chloro-3-fluorophenyl)-3,4,6,7,9,10-hexahydro-3,3,6,6-tetramethyl-1,8(2H,5H)-acridinedione]", "values": [
      {"measurement": "pIC50", "setting": "[1]; [3]", "result": 8.23},
      {"measurement": "pIC50", "setting": "[2]; [4]", "result": 9.36}
    ]},
    {"smiles": "CC1(C)CC(=O)C2=C(C1)NC1=C(C(=O)CC(C)(C)C1)C2c1ccc(Cl)c(Sc2ccccc2)c1", "note": "[B, 9-(4-chloro-3-phenylthiophenyl)-3,4,6,7,9,10-hexahydro-3,3,6,6-tetramethyl-1,8(2H,5H)-acridinedione]", "values": [
      {"measurement": "pIC50", "setting": "[1]; [3]", "result": 9.25},
      {"measurement": "pIC50", "setting": "[2]; [4]", "result": 9.92}
    ]},
    {"smiles": "CC1(C)CC(=O)C2=C(C1)NC1=C(C(=O)CC(C)(C)C1)C2c1ccc(Cl)c(-n2cccc2)c1", "note": "[F, 9-[4-chloro-3-(1H-pyrrol-1-yl)phenyl]-3,4,6,7,9,10-hexahydro-3,3,6,6-tetramethyl-1,8(2H,5H)-acridinedione]", "values": [
      {"measurement": "pIC50", "setting": "[1]; [3]", "result": 9.36},
      {"measurement": "pIC50", "setting": "[2]; [4]", "result": 9.74}
    ]},
    {"smiles": "CC1(C)CC(=O)C2=C(C1)NC1=C(C(=O)CC(C)(C)C1)C2c1ccc(Cl)c(Cl)c1", "note": "[D, 9-(3,4-dichlorophenyl)-3,4,6,7,9,10-hexahydro-3,3,6,6-tetramethyl-1,8(2H,5H)-acridinedione]", "values": [
      {"measurement": "pIC50", "setting": "[1]; [3]", "result": 8.03},
      {"measurement": "pIC50", "setting": "[2]; [4]", "result": 9.19}
    ]}
  ]
}
